Laboratory results published in patent publication US8846703B2, “Crystal of a free tricyclic pyrazolopyrimidine derivative” (Daiichi Sankyo Company, Limited, priority 2010, dated 2014).

Key:
[1] = tested on: human breast cancer cell line SK-BR-3; assay: Cell growth inhibition assay (MTT), SK-BR-3; type: cell-based; conditions: SK-BR-3 cells, 72 hours, read-out: GI50 value (50% growth inhibitory concentration)
Description: (§1) A cell growth inhibition assay was performed using two types of cells (human breast cancer cell line SK-BR-3 and human lung cancer cell line NCI-H460).
(§2) Cells of each type were suspended in a medium and seeded into a 96-well multi-well plate at 2000 cells/150 μL/well in the case of SK-BR-3 and at 500 cells/150 μL/well in the case of NCI-H460. Compound (I) was dissolved in DMSO, and this was diluted with medium to prepare a sample solution (DMSO concentration: 0.5% or less). On the day following the seeding, 50 μL of DMSO-containing medium to which the test compound was not added (hereinafter called DMSO diluted solution; DMSO concentration: 0.5% or less) or 50 μL of the sample solution was further added to the cells. An MTT assay was performed immediately after and 72 hours after adding the sample solution or the DMSO diluted solution to the cells. The MTT assay was performed as follows.
(§3) 5 mg/mL of an MTT (3-(4,5-dimethylthiazol-2-yl)-2,5-diphenyltetrazolium bromide) solution was added at 20 μL per well. Thereafter, the plate was incubated at 37° C. in 5% CO2 for four hours. The plate was centrifuged at 1200 rpm for five minutes, and then the culture supernatant was removed by suction using a dispenser. DMSO was added at 150 μL per well, and the generated formazan was dissolved. […] The absorbance of each well was measured using a plate reader at an OD of 540 nm with a reference of 660 nm. […]

[2] = tested on: human lung cancer cell line NCI-H460; assay: Cell growth inhibition assay (MTT), NCI-H460; type: cell-based; conditions: NCI-H460 cells, 72 hours, read-out: GI50 value (50% growth inhibitory concentration)
Description: as §1, §2, §3

GI50 [1]: 13 nM
GI50 [2]: 26 nM
SMILES: CNC(=O)CC1=Cc2nn(Cc3ncc(C)c(OC)c3Cl)c3nc(N)nc(c23)SC1 [Compound (1), 2-{4-amino-2-[(3-chloro-4-methoxy-5-methylpyridin-2-yl)methyl]-2,7-dihydro-6-thia-1,2,3,5-tetraazabenzo[cd]azulen-8-yl}-N-methylacetamide]
